Measurements published in patent US20050282743A1, “Molecular interactions in cells” (Arbor Vita Corporation, priority 2001, published 2005).
pKd: −log10 of the molar value. Peptide text beside a SMILES is read from it. * marks the point of attachment. Biotin = O=C1N[C@H]2[C@H](CS[C@H]2CCCCC(=O)*)N1

How the values were obtained:
Type in all cases: binding
[1] = biological target: T1, PDZ protein (GST-PDZ fusion) (Homo sapiens, UniProt O14745); assay: G' assay (10 uM PL peptide), results of TABLE 7 and TABLE 12
T1 construct: made in house; host or cells: E. coli (DH5alpha, BL21 or JM109)
T1 sequence (O14745 1-358): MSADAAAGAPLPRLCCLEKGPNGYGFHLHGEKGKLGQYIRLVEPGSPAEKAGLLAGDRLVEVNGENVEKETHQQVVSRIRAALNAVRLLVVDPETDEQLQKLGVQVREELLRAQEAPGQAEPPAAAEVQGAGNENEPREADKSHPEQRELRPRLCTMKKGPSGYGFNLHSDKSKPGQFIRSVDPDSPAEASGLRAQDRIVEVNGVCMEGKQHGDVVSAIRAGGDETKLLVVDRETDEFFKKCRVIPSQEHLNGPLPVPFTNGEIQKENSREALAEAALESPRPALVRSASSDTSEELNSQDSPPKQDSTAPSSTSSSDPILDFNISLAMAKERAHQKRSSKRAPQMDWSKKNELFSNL
Procedure, shortened: (§1)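 Biotin-PL peptide (N-term label), 10 uM vs GST-PDZ; protein 5 ug/ml by default. A450 nm binned: 1 = 0-1, 2 = 1-2, 3 = 2-3, 4 = 3-4, 5 = >4 on >2 repeats, 0 = no binding.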

[2] = biological target: T2, PDZ protein (GST-PDZ fusion) (Homo sapiens, UniProt Q5T2W1); assay: as above; conditions: PDZ PDZK-1, PDZ Domain 2
T2 construct: made in house; host or cells: E. coli (DH5alpha, BL21 or JM109)
T2 sequence (Q5T2W1 1-519): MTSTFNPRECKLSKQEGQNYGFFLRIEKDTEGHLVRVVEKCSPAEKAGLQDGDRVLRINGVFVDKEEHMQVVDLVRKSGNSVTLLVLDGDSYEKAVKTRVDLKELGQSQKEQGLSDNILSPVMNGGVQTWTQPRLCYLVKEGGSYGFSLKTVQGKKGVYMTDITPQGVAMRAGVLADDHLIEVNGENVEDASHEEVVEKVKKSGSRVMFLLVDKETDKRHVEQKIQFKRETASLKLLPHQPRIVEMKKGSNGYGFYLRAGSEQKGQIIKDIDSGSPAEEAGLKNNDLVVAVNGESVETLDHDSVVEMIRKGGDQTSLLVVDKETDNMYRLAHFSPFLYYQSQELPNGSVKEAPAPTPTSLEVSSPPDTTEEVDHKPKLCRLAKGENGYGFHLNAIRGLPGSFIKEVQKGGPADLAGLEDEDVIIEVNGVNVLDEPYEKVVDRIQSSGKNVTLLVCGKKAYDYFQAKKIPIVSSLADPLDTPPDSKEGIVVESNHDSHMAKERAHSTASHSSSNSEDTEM
Procedure, shortened: as §1

[3] = biological target: T3, PDZ protein (GST-PDZ fusion) (Homo sapiens, UniProt Q9BYB0); assay: as above; conditions: PDZ SHANK3, PDZ Domain 1
T3 construct: made in house; host or cells: E. coli (DH5alpha, BL21 or JM109)
T3 sequence (Q9BYB0 whole entry, the tested form may be a part): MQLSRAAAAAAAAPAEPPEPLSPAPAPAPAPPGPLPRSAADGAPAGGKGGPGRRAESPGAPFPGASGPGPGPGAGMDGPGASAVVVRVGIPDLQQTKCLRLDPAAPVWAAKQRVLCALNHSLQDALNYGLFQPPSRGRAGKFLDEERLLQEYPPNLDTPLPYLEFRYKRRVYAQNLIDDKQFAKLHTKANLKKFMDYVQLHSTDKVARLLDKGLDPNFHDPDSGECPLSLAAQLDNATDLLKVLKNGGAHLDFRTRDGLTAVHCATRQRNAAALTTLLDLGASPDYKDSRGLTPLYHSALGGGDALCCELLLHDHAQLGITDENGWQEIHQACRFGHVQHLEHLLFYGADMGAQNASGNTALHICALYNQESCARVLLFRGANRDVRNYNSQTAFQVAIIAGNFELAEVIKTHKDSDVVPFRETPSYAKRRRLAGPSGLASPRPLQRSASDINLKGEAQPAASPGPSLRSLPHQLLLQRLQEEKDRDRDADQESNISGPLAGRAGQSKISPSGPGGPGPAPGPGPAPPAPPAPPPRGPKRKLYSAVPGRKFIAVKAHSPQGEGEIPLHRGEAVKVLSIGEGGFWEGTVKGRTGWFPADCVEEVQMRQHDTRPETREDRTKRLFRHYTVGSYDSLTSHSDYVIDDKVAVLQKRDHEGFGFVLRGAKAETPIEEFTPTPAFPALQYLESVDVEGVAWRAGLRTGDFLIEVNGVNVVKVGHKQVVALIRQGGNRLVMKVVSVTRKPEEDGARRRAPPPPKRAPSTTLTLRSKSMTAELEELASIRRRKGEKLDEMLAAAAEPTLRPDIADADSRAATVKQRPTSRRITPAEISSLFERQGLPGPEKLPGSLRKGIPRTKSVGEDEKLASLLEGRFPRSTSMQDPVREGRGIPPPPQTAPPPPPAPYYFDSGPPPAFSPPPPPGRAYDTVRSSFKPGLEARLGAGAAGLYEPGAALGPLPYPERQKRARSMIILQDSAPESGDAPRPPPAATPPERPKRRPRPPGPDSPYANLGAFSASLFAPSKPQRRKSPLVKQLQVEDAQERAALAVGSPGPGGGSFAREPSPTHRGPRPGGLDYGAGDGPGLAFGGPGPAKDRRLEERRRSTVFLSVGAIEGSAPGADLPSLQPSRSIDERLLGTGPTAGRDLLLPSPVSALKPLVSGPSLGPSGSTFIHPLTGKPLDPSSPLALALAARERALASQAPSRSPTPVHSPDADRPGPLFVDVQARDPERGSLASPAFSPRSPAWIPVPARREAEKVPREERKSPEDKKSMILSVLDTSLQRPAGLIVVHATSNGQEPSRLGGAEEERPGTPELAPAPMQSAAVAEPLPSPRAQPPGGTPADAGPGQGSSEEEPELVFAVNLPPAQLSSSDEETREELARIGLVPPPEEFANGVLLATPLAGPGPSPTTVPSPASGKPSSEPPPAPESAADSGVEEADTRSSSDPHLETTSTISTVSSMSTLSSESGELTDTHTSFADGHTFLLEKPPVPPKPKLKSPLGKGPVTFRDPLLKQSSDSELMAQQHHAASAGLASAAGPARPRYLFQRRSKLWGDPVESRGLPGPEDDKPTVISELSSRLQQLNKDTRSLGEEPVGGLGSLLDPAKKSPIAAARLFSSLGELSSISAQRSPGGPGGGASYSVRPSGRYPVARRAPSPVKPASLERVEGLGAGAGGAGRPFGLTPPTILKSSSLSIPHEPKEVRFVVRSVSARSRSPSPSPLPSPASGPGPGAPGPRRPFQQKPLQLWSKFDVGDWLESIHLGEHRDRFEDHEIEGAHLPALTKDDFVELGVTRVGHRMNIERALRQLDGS
Procedure, shortened: as §1

[4] = biological target: T4, PDZ protein (GST-PDZ fusion) (Homo sapiens, UniProt Q9Y566); assay: as above; conditions: PDZ SHANK1, PDZ Domain 1
T4 construct: made in house; host or cells: E. coli (DH5alpha, BL21 or JM109)
T4 sequence (Q9Y566 whole entry, the tested form may be a part): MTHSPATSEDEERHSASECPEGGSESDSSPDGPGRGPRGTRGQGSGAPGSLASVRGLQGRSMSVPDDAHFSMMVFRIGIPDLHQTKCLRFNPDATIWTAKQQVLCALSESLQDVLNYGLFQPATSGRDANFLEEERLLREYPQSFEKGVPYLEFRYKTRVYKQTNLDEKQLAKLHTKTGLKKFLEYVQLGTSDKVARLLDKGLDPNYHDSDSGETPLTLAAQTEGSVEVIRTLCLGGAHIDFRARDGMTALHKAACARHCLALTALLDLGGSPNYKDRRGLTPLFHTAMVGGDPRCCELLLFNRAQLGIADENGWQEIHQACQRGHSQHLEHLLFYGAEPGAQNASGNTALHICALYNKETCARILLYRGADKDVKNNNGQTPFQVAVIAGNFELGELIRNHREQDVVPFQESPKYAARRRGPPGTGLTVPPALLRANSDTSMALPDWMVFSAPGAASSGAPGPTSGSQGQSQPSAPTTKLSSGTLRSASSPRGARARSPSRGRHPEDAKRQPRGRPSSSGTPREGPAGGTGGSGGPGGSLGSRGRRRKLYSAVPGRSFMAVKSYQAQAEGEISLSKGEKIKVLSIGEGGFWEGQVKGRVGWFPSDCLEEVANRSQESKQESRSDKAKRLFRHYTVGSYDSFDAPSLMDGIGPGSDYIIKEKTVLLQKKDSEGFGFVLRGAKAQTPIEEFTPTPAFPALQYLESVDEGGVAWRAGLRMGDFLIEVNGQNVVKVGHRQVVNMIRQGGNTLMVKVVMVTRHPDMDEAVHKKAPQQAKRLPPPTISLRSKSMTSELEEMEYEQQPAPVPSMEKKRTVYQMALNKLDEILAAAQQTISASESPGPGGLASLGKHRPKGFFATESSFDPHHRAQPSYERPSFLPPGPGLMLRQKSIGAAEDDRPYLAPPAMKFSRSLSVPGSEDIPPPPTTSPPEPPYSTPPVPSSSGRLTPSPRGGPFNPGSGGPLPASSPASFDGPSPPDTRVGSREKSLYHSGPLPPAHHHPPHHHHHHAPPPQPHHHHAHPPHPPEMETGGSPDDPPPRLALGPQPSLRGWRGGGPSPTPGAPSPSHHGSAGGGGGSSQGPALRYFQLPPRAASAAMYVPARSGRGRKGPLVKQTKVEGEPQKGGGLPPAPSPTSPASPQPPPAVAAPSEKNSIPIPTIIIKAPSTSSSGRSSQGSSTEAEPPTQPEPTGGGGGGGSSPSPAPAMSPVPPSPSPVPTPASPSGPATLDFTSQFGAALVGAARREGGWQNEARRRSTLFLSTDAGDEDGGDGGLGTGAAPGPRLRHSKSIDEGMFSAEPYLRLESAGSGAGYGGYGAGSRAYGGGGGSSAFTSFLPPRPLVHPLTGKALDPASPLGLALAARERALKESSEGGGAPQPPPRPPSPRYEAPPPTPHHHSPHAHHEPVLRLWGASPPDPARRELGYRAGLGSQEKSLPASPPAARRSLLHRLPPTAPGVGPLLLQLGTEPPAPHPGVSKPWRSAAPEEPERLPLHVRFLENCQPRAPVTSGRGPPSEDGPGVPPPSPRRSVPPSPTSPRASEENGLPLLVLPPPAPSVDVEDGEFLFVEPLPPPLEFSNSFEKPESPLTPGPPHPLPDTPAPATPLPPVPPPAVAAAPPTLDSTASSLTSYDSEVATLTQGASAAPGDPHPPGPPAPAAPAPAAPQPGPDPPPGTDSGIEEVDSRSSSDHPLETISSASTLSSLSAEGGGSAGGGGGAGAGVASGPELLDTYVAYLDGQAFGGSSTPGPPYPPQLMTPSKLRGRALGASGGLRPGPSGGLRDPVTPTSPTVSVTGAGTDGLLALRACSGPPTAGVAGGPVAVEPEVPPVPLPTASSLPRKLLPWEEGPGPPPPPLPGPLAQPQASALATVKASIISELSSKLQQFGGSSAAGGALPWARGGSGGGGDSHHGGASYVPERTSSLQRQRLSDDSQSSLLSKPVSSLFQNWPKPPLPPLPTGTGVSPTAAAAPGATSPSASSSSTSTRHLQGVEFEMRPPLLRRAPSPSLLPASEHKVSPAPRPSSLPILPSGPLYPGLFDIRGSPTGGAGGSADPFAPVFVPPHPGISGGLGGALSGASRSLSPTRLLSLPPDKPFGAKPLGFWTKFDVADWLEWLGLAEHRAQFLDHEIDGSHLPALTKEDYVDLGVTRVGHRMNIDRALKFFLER
Procedure, shortened: as §1

[5] = biological target: T5, PDZ-domain polypeptide (GST/PDZ fusion protein) (Homo sapiens, UniProt Q5T2W1); assay: Apparent affinity (Kd) by titration of PL peptide in the G assay; conditions: Peptide Optimal Conc (Kd by titration of the PL peptide), PDZ PDZK-1, PDZ Domain 2
T5 construct: made in house; host or cells: E. coli (DH5alpha, BL21 or JM109)
Experimental: (§2) The third column labeled “Peptide Optimal Concentration” in the tables is a number reflective of the binding interaction between the PL protein and PDZ protein. […] The column labeled “Protein Optimal Concentration” refers to the protein concentration used to assay PL interaction (in ug/ml); a ‘0’ is indicative of 5 ug/ml protein concentration; any other value represents the concentration (in ug/ml) used to determine the dissociation constant for a given interaction.
The “A” and “G” assays described supra can be used to determine the “apparent affinity” of binding of a PDZ ligand peptide to a PDZ-domain polypeptide. Apparent affinity is determined based on the concentration of one molecule required to saturate the binding of a second molecule (e.g., the binding of a ligand to a receptor). Two particularly useful approaches for quantitation of apparent affinity of PDZ-ligand binding are provided infra.
In cases where satisfying the above criteria proves difficult, an alternative approach (infra) can be used.
(1) A fixed concentration of a PDZ-domain polypeptide and increasing concentrations of a labeled PL peptide (labeled with, for example, biotin or fluorescein, see TABLE 9 for representative peptide amino acid sequences) are mixed together in solution and allowed to react. In certain assays, peptide concentrations are 0.1 uM, 1 uM, 10 uM, 100 uM, 1 mM. In other assays, appropriate reaction times can range from 10 minutes to 2 days at temperatures ranging from 4° C. to 37° C. In some instances, the identical reaction can also be carried out using a non-PDZ domain-containing protein as a control (e.g., if the PDZ-domain polypeptide is fusion protein, the fusion partner can be used).
(2) PDZ-ligand complexes can be separated from unbound labeled peptide using a variety of methods known in the art.
(3) The PDZ-ligand complex is detected based on presence of the label on the peptide ligand using a variety of methods and detectors known to one of skill in the art. For example, if the label is fluorescein and the separation is achieved using HPSEC, an in-line fluorescence detector can be used. The binding can also be detected as described supra for the G assay.

KIAA0561 (PDZ Domain 1) = biological target: T6, KIAA0561 (PDZ Domain 1) (Homo sapiens, UniProt O60307); assay: G' assay, TABLE 12; conditions: A450 nm class of biotinylated PL peptide bound; 0 in conc columns = peptide 10 uM, protein 5 ug/ml
T6 construct: made in house; host or cells: E. coli (DH5alpha, BL21 or JM109)
T6 sequence (O60307 with tags, fused parts or gaps): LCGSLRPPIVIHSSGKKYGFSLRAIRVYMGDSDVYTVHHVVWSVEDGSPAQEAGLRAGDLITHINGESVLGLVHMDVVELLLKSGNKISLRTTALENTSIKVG
Experimental: as §2
(§3) Finally, the seventh column labeled “Classification” is another measure of the level of binding. In particular, it provides an absorbance value at 450 nm which indicates the amount of PL peptide bound to the PDZ protein. The following numerical values have the following meanings: ‘1’—A450 nm 0-1; ‘2’—A450 nm 1-2; ‘3’—A450 nm 2-3; ‘4’—A450 nm 3-4; ‘5’—A450 nm of 4 more than 2× repeated; ‘0’—A450 nm 0, i.e., not found to interact. Thus, higher numbers indicate stronger interactions.
(§4) For convenience, the assay conditions described in this section are referred to as the “G′ assay” and the “G″ assay,” with the specific conditions described in the preceding section on G assays being referred to as the “G^0 assay.” The “G′ assay” is identical to the “G^0 assay” except at step (2) the peptide concentration is 10 uM instead of 20 uM. […] Correspondingly, it slightly increases the certainty that detected interactions are of sufficient affinity and half-life to be of biological importance and useful therapeutic targets.

KIAA807 = biological target: T7, KIAA807 (Homo sapiens, UniProt Q6P0Q8); assay: G' assay, TABLE 12; conditions: A450 nm class of biotinylated PL peptide bound; 0 in conc columns = peptide 10 uM, protein 5 ug/ml
T7 construct: made in house; host or cells: E. coli (DH5alpha, BL21 or JM109)
T7 sequence (Q6P0Q8 1104-1192 limits assumed): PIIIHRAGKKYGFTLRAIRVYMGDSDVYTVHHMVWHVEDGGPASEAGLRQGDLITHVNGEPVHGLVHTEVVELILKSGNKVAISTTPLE
Experimental: as §2, §3, §4

[6] = biological target: T8, PDZK1 (PDZ Domain 2, 3, 4) (Homo sapiens, UniProt Q5T2W1); assay: G' assay, TABLE 12; conditions: A450 nm class of biotinylated PL peptide bound; 0 in conc columns = peptide 10 uM, protein 5 ug/ml
T8 construct: When more than one PDZ domain was cloned, the DNA portion cloned represents the PDZ domains and the cDNA portion located between individual domains; made in house; host or cells: E. coli (DH5alpha, BL21 or JM109)
Experimental: as §2, §3, §4

[7] = biological target: T9, KIAA0807(S) (PDZ Domain 1) (Homo sapiens, UniProt Q6P0Q8); assay: G' assay and Kd titration, TABLE 12
T9 construct: made in house; host or cells: E. coli (DH5alpha, BL21 or JM109)
T9 sequence (Q6P0Q8 with tags, fused parts or gaps): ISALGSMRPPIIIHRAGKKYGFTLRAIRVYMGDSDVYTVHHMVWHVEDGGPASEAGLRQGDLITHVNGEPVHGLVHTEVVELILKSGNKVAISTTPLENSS
Experimental: as §2, §3
For convenience, the assay conditions described in this section are referred to as the “G′ assay” and the “G″ assay,” with the specific conditions described in the preceding section on G assays being referred to as the “G^0 assay.” The “G′ assay” is identical to the “G^0 assay” except at step (2) the peptide concentration is 10 uM instead of 20 uM.

How did the Classification ([1]; PDZ EBP50, PDZ Domain 1) turn out when `CC(C)C[C@H](NC(=O)[C@H](CO)NC(=O)[C@H](CO)NC(=O)[C@H](CCCNC(=N)N)NC(=O)[C@H](CCCNC(=N)N)NC(=O)[C@H](Cc1c[nH]c2ccccc12)NC(=O)[C@H](CO)NC(=O)[C@@H]1CCCN1C(=O)CCCC[C@@H]1SC[C@@H]2NC(=O)N[C@@H]21)C(=O)N[C@@H](CO)C(=O)N[C@@H](CCC(=O)O)C(=O)N[C@@H](CO)C(=O)N[C@@H](CCC(=O)O)C(=O)N[C@@H](CC(N)=O)C(=O)N[C@@H](C)C(=O)N[C@H](C(=O)N[C@@H](CO)C(=O)N[C@@H](CC(C)C)C(=O)N[C@H](C(=O)N[C@H](C(=O)N[C@@H](Cc1ccccc1)C(=O)O)[C@@H](C)O)[C@@H](C)O)[C@@H](C)O` [BLR-1] (Biotin-PSWRRSSLSESENATSLTTF-OH; C-terminus assumed) was run?
Its Classification is 3 (A450 nm 2-3).

And the Classification ([1]; PDZ EBP50, PDZ Domain 2)?
Its Classification is 3 (A450 nm 2-3).

And the Classification [2]?
Its Classification is 1 (A450 nm 0-1).

What about the Classification [3] of the same compound?
Its Classification is 3 (A450 nm 2-3).

What about the Classification [4] of the same compound?
The Classification was 3 (A450 nm 2-3).

And the pKd [5]?
The pKd was 5.70.

What about the Classification (KIAA0561 (PDZ Domain 1)) of the same compound?
Its Classification is 1 (A450 nm 0-1).

What about the Classification (KIAA807) of the same compound?
The Classification was 2 (A450 nm 1-2).

And the Classification [6]?
Its Classification is 1 (A450 nm 0-1).

And the pKd [7]?
The pKd was 6.00.

And the Classification ([7]; A450 nm class of biotinylated PL peptide bound, 0 in conc columns = peptide 10 uM, protein 5 ug/ml)?
The Classification was 2 (A450 nm 1-2).
